Assay [1] deals with P(40) particulate fraction of Methylosinus sp. (CRL-15, NRRL B-11,202). Nature of the assay: Substrate competition: effect of methane on propylene epoxidizing activity of P(40) fraction (Table XIII). As to conditions: gaseous substrate as named. The assay is classed as biochemical. How it is done:
The oxidation of methane and propylene by particulate [(P)40 and (P)80] fractions and soluble [S(80)] fraction was measured at 30° C. by estimating the production of methanol and propylene oxide, respectively. The reaction mixtures contained in 1.0 ml: 150 mM potassium phosphate buffer, pH 7.0 containing 5 mM MgC2, 0.6 ml; 10 μmoles NADH, and cellular fraction.
Reaction mixtures were contained in 10 ml vials at 4° C. Vials were sealed with rubber caps. The gaseous phase in the vials was removed using vacuum and then was replaced with a gas mixture of methane or propylene and oxygen at a 1:1, v/v ratio. Oxidation of other gaseous n-alkanes and n-alkenes was examined as described above. For liquid substrates, 10 μ of substrate was used directly.
The hydroxylation of methane and the epoxidation of propylene by particulate fractions of methane-utilizing bacteria required oxygen and NADH. The question of whether the same or a similar enzyme was involved in the oxidation of both substrates was examined by substrate competition experiments. The experiment consisted of determining the effect of methane on the oxidation of propylene to propylene oxide by the P(40) particulate fraction of Methylosinus sp. (CRL-15, NRRL B-11,202).

The test system is the same in assay [2]. The assay is described as follows: Oxidation of n-alkenes and n-alkanes by P(40) particulate fraction (Table X). In kind it is biochemical. As to conditions: P(40) fraction, 30° C.
Assay [3] has the same test system. Nature of the assay: Stoichiometry of propylene epoxidation and methane hydroxylation by P(40) fraction (Table XIV). In kind it is biochemical. As to conditions: 5.0 μmoles substrate; for Product formed: gas chromatography; for O2 consumed: polarographic; for NADH oxidized: spectrophotometric. The procedure: The particulate P(40) fraction of Methylosinus sp. (CRL-15, NRRL B-11,202) was used to determine the stoichiometry of hydroxylation and epoxidation reactions. The stoichiometry of methane or propylene-dependant NADH oxidation, oxygen consumption and product formation was approximately 1:1:1 Table XIV. This is consistent with methane or propylene oxygenation being catalyzed by a mono-oxygenase.
^a Under identical condition of reaction, the estimation of NADH
oxidized was carried out spectrophotometrically, the estimation of oxygen
consumed was measured polarographically, and the estimation of product
formed was carried out by gas chromatography.

The test system of assay [4] is cell-free particulate fractions derived from the methylotrophic microorganisms. Nature of the assay: Inhibition of conversion of C3-C6 n-alkanes to sec. alcohols by cell-free particulate fractions. The assay is classed as biochemical. As to conditions: oxygen and NADH. An excerpt:
The conditions for preparing the cell suspensions or the cell-free particulate fractions from methane-grown methylotroph microorganisms is the same as described above.

Assay [5] concerns purified secondary alcohol dehydrogenase. Nature of the assay: Stoichiometry of isopropanol and sec-butanol oxidation by the purified secondary alcohol dehydrogenase (Table XXIV). The assay is classed as biochemical, Pichia sp. NRRL Y-11,328. As to conditions: substrate 5.7 (isopropanol) or 6.0 (2-butanol) μmoles. The procedure:
^a The estimation of NAD^+ reduced was measured
spectrophotometrically at 340 nm.
^b The estimation of products was detected by gas chromatography as
described in the methods.

In assay [6] the test system is secondary alcohol dehydrogenase (SADH). The assay is described as follows: Substrate specificity and Michaelis constants of purified SADH. In kind it is biochemical, Pseudomonas sp. ATCC 21439. The procedure: Secondary alcohol dehydrogenase (SADH) from an obligate methanol utilizer, Pseudomonas sp. ATCC 21439 was purified as follows. […] 0.05 M sodium phosphate buffer, pH 7.0 with 0.5mM dithiothretol (buffer A) and were disrupted sonically (5×1 min.). The crude extract was separated by centrifugation. The crude extract was heat-treated at 50° C. in a water bath for 10 minutes. The resulting precipitate was removed by centrifugation. To the supernatant solution, 25 ml of protamine sulfate solution (2% solution in 0.1 M Tris base) was added dropwise with continuous stirring. After standing for 30 minutes, the extract was centrifuged. The supernatant solution was fractionated with solid ammonium sulfate. […] This DEAE-cellulose eluate was concentrated by ammonium sulfate fractionation. Material precipitating between 30 and 50% ammonium sulfate saturation was collected by centrifugation and dialyzed overnight against A. This fraction was further washed and filtered through an Amicon unit with XM 50 membrane. The concentrated fraction (6 ml) inside the Amicon unit was applied to an Affi-Gel Blue column (0.8 cm ×18 cm) which had been equilibrated with buffer A for affinity chromatography. The column was washed overnight with buffer A (0.18 ml./min.) and then was eluted with buffer A containing 5 mM NAD. Each 1 ml. fraction was collected.
The purified secondary alcohol dehydrogenase enzyme (SADH) may be used directly for converting C3 -C6 secondary alcohols to the corresponding methyl ketones by the procedures described above; however, a source of NAD^+ must be added to the reaction medium. One can determine the NAD-linked secondary alcohol dehydrogenase activity with a fluorescence spectrophotometer (Perkin Elmer, Model MPF 44A) by following the formation of reduced NAD (Ex 340 nm, Em 460 nm). The assay system (3 ml.) will typically contain: sodium phosphate buffer pH 7.0, 150 μmol; NAD 1.0 μmol; a given amount of enzyme preparation; and 20 μmol secondary alcohol. The reaction is started by the addition of secondary alcohol. One unit of SADH enzyme activity represents the reduction of one nmole NAD per minute.

Assay [7] concerns cell suspensions of the strains of C1-utilizers tested. The assay is described as follows: Production of methyl ketones from secondary alcohols by cell suspensions of C1-utilizers (strains tested). The assay is classed as cell-based. As to conditions: cell suspensions of C1-utilizers. An excerpt:
The substrate specificity for the oxidation of C3 -C6 secondary alcohols by the strains of C1 -utilizers was studied.

Assay [8] relates to purified secondary alcohol dehydrogenase. Nature of the assay: Substrate and electron acceptor specificity of purified yeast secondary alcohol dehydrogenase. In kind it is biochemical, Pichia sp. NRRL Y-11,328. As to conditions: examined spectrophotometrically. How it is done:
Large scale cultures of Pichia sp. NRRL Y-11,328 were grown with aeration at 30° C. in a 14-liter New Brunswick f fermentor in a mineral salt medium containing methanol (0.4%, v/v) as the sole carbon source. The cells (200 g., wet weight) were suspended in 50 mm sodium phosphate buffer, pH 7.0, containing 1 mM dithiothreitol (buffer A), and crude extracts were prepared as described previously. To the crude extracts, 18 ml. of protamine sulfate solution [2% solution in 0.1 M tris (hydroxymethyl) aminomethane (tris) base] was added dropwise with continuous stirring. After standing for 30 min., the extracts were centrifuged at 20,000 x g. for 60 min. The supernatant solution was fractioned with solid ammonium sulfate. Extracts were brought to 50% of saturation with respect to ammonium sulfate by addition of 313 g. of the salt per liter of extract. Precipitated proteins was removed by centrifugation, and 137 g. of ammonium sulfate was added per liter of the supernatant liquid to bring it to 70% of saturation. Material precipitating between 50 and 70% of saturation was collected by centrifugation and dissolved in buffer A. This preparation was dialyzed overnight against buffer A, and the dialyzed material was applied to a DEAE-cellulose column (5×40 cm) that had been equilibrated with buffer A. The sample was washed with 200 ml. of buffer A and eluted with 2 liters of buffer A that contained NaCl in a linear gradient running from a concentration of 0 to 0.5 M. Fractions of 15 ml. were collected. Fractions containing secondary alcohol dehydrogenase activity were pooled and were termed DEAE-cellulose eluate. The DEAE-cellulose eluate was concentrated by ammonium sulfate fractionation.
Secondary alcohol dehydrogenase activity was measured spectrophotometrically at 340 nm with a NAD^+ as an electron acceptor. The reaction mixture, in a total 3.0 ml., contained 50 mM phosphate buffer, pH 8.0, 5μmoles NAD^+, crude extracts, and substrate. The reactions were started by addition of 100 μof 0.1 M substrate and the rate of NAD^+ reduction was measured. Protein concentration was determined by the method of Lowry et al.
The substrate specificity of the purified secondary alcohol dehydrogenase was examined spectrophotometrically.

The subject of assay [9] is cell-free extracts of strain ATCC 21439. As to conditions: 30° C.
Description: The reaction mixtures 3 ml (1.0 mg protein) were incubated at 30°
C. for 10 min. (exp. 1) and for 20 min. (exp. 2) in the presence of 1.0
^a Determined gas chromatographically.
^b Determined fluorescence spectrophotometrically. Endogenous
consumption of NAD was corrected.

This note sets out measurements from US4269940A, “Microbiological alkane oxidation process” (priority 1979, dated 1981).

Where two headings read alike, the source gives them in different places.

`C` [Methane] displayed a Propylene oxide produced in assay [1] of 0 μmoles/hr/mg. protein. The “Rate of product formation (substrate to epoxide or alcohol)” value in assay [2] is 4.8 μ moles/hr/mg of protein. In assay [3], this compound showed a Product formed of 4.2 µmol, an O2 consumed of 4.6 µmol and an NADH oxidized of 4.8 µmol.

`C=CC` [Propylene] showed a Propylene oxide produced in assay [1] of 4.3 μmoles/hr/mg. protein. The “Rate of product formation (substrate to epoxide or alcohol)” value in [2] is reported as 4.1 μ moles/hr/mg of protein. For the same compound, in assay [4], the “Inhibition of conversion of C3-C6 n-alkanes to sec. alcohols (in words)” value is “inhibit”. Moreover, in assay [4] (listed as propylene), the “Inhibition of conversion of C3-C6 n-alkanes to sec. alcohols (in words)” value is “inhibited”. Further, in [3], the Product formed was 4.5 µmol, the O2 consumed turned out to be 4.8 µmol and the NADH oxidized came out at 5.0 µmol.

Turning to `CCC(C)O` (centres unmarked) [2-butanol], the “Product formed (acetone or 2-butanone)” value in assay [5] (gas chromatography) stood at 5.7 µmol. The “NAD^+ reduced” value in [5] (spectrophotometrically at 340 nm) is 5.9 µmol. For the same compound, the “Oxidation by purified SADH (in words)” value in [6] was “highest”. The “Rate of oxidation of secondary alcohols to methyl ketones” value in assay [7] is listed as “higher rates”. Further, in assay [8], the “Oxidation by the purified yeast enzyme (in words)” value is “catalyzed the oxidation”. The same compound gave a 2-Butanol consumed in assay [9] (experiment 1, 10 min.) of 260 nmol. In assay [9] (experiment 2, 20 min.), this compound came in with a 2-Butanol consumed of 530 nmol and an NAD consumed of 540 nmol.
